Measurements reported in patent publication US10633354B2, “Substituted tricyclic heterocyclic compounds” (BRISTOL-MYERS SQUIBB COMPANY, priority 2016, dated 2020).

Key:
S1P1 = biological target: T1, S1P1 (Homo sapiens, UniProt P21453); test: Receptor [35S] GTPγS binding assay (S1P1 GTPγS); assay type: biochemical; details: membranes from S1P1/CHO cells; for S1P1 GTPgS (Ymax): maximal response; for EC50: phosphorylated compounds, read-out: S1P1 GTPgS (EC50)
T1 construct: expressed in transfected cells; host or cells: CHO cells (S1P1/CHO), membranes
T1 sequence (P21453 whole entry): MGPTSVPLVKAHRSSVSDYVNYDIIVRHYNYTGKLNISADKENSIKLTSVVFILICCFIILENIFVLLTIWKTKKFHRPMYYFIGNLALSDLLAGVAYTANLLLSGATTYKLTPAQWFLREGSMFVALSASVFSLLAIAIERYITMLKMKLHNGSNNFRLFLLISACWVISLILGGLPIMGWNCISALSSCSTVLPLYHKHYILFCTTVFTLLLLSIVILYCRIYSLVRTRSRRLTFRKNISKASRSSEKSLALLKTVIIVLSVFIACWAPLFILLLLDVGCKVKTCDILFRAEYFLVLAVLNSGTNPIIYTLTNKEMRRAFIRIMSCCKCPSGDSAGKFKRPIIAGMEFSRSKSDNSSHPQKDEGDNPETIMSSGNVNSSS
Description: (§1) The compounds of Formula (I), Formula (II), Formula (III), and Formula (IV), and salts thereof in which R2 is —OH, engage their biological targets (e.g. S1P1) after bioactivation through phosphorylation of the alcohol to provide an active phosphate ester compound of Formula (I), Formula (II), Formula (III), and Formula (IV), or salts thereof, in which R2 is —OP(O)(OH)2. In vitro characterization of biological activity of the examples was conducted on synthetically prepared samples of the phosphorylated compounds.
(§2) Receptor [^35S] GTPyS Binding Assays: (S1P1 GTPyS/S1P3 GTPyS)
(§3) Compounds were loaded in a 384 Falcon v-bottom plate (0.5 μl/well in a 11 point, 3-fold dilution). Membranes prepared from S1Pi/CHO cells or EDG3-Ga15-bla HEK293T cells (EDG3 equivalent S1P3) were added to the compound plate (40 μl/well, final protein 3 μg/well) with MULTIDROP®. [^35S] GTP (1250 Ci/mmol, Perkin Elmer) was diluted in assay buffer: 20 mM HEPES, pH7.5, 10 mM MgCl2, 150 mM NaCl, 1 mM EGTA (ethylene glycol tetraacetic acid), 1 mM DTT (Dithiothreitol), 10 μM GDP, 0.1% fatty acid free BSA, and 10 μg/ml Saponin to 0.4 nM. 40 μl of the [^35S] GTP solution was added to the compound plate with a final concentration of 0.2 nM. The reaction mixture was kept at room temperature for 45 min. At the end of incubation, all the mixtures in the compound plate were transferred to Millipore 384-well FB filter plates via the VELOCITY 11® Vprep liquid handler. The filter plate was washed with water 4 times by using the manifold Embla plate washer and dried at 60° C. for 45 min. MicroScint 20 scintillation fluid (30 μl) was added to each well for counting on the Packard TOPCOUNT®. ECso is defined as the agonist concentration that corresponds to 50% of the Ymax (maximal response) obtained for each individual compound tested.
(§4) A smaller value for GTPyS S1 P1 EC50 value indicated greater activity for the compound in the GTPyS S1P1 binding assay. A larger value for the GTPyS S1 P3 EC50 value indicated less activity in the GTPyS S1 P3 binding assay (Table A).

S1P3 = biological target: T2, S1P3 (Homo sapiens, UniProt Q99500); test: Receptor [35S] GTPγS binding assay (S1P3 GTPγS); assay type: biochemical; details: membranes from EDG3-Ga15-bla HEK293T cells; read-out: S1P3 GTPgS (EC50)
T2 construct: expressed in transfected cells; host or cells: HEK293T cells (EDG3-Ga15-bla), membranes
T2 sequence (Q99500 whole entry): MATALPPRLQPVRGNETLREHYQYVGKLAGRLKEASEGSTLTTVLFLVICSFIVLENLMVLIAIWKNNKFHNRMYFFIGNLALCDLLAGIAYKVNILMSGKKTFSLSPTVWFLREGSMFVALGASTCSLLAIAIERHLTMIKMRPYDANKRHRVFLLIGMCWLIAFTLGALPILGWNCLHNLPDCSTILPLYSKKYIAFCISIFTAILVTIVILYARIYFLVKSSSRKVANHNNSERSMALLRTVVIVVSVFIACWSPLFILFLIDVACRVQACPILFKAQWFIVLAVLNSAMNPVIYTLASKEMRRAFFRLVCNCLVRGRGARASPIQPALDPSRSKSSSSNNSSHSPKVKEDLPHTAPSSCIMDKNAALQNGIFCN
Description: as §1, §2, §3, §4

S1P1 GTPgS (Ymax) (S1P1) | EC50 (S1P1) | EC50 (S1P3) | SMILES
98% | 10 nM | > 3000 nM | CCCCCCCc1nc2c(s1)-c1ccc([C@H]3CC[C@](N)(COP(=O)(O)O)C3)cc1CC2 [Example 27]
79% | 19 nM | > 3000 nM | CCCc1nc2c(s1)-c1ccc([C@H]3CC[C@](N)(COP(=O)(O)O)C3)cc1CC2 [Example 28]
58% | 30 nM | > 3000 nM | CCCCOc1nc2c(s1)-c1ccc([C@H]3CC[C@](N)(COP(=O)(O)O)C3)cc1CC2 [Example 29]
102% | 12 nM | > 3000 nM | CCCCCCOc1nc2c(s1)-c1ccc([C@H]3CC[C@](N)(COP(=O)(O)O)C3)cc1CC2 [Example 30, ((1R,3S)-1-amino-3-(2-(hexyloxy)-4,5-dihydronaphtho[2,1-d]thiazol-7-yl)cyclopentyl) methyl dihydrogen phosphate]
58% | 20 nM | > 3000 nM | CCCCSc1nc2c(s1)-c1ccc([C@H]3CC[C@](N)(COP(=O)(O)O)C3)cc1CC2 [Example 31, ((1R,3S)-1-amino-3-(2-(butylthio)-4,5-dihydronaphtho[2,1-d]thiazol-7-yl)cyclopentyl)methyl dihydrogen phosphate]
49% | 133 nM | > 3000 nM | CCCCNc1nc2c(s1)-c1ccc([C@H]3CC[C@](N)(COP(=O)(O)O)C3)cc1CC2 [Example 32, ((1R,3S)-1-amino-3-(2-(butylamino)-4,5-dihydronaphtho[2,1-d]thiazol-7-yl)cyclopentyl)methyl dihydrogen phosphate]

SMILES | S1P1 GTPgS (Ymax) (S1P1) | EC50 (S1P1) | EC50 (S1P3)
CCCCOCCOc1nc2c(s1)-c1ccc([C@H]3CC[C@](N)(COP(=O)(O)O)C3)cc1CC2 [Example 26, ((1R,3S)-1-amino-3-(2-(2-butoxyethoxy)-4,5-dihydronaphtho[2,1-d]thiazol-7-yl)cyclopentyl)methyl Dihydrogen Phosphate] | 107% | 1 nM | 190 nM
